Measured values taken from article PMC3914206.

The compounds below were run against T1, panel of 442 kinases (Homo sapiens, UniProt O75747). Details: Compound Concentration 10 µM.
T1 construct: purchased KINOMEscan
T1 sequence (O75747 1-1486): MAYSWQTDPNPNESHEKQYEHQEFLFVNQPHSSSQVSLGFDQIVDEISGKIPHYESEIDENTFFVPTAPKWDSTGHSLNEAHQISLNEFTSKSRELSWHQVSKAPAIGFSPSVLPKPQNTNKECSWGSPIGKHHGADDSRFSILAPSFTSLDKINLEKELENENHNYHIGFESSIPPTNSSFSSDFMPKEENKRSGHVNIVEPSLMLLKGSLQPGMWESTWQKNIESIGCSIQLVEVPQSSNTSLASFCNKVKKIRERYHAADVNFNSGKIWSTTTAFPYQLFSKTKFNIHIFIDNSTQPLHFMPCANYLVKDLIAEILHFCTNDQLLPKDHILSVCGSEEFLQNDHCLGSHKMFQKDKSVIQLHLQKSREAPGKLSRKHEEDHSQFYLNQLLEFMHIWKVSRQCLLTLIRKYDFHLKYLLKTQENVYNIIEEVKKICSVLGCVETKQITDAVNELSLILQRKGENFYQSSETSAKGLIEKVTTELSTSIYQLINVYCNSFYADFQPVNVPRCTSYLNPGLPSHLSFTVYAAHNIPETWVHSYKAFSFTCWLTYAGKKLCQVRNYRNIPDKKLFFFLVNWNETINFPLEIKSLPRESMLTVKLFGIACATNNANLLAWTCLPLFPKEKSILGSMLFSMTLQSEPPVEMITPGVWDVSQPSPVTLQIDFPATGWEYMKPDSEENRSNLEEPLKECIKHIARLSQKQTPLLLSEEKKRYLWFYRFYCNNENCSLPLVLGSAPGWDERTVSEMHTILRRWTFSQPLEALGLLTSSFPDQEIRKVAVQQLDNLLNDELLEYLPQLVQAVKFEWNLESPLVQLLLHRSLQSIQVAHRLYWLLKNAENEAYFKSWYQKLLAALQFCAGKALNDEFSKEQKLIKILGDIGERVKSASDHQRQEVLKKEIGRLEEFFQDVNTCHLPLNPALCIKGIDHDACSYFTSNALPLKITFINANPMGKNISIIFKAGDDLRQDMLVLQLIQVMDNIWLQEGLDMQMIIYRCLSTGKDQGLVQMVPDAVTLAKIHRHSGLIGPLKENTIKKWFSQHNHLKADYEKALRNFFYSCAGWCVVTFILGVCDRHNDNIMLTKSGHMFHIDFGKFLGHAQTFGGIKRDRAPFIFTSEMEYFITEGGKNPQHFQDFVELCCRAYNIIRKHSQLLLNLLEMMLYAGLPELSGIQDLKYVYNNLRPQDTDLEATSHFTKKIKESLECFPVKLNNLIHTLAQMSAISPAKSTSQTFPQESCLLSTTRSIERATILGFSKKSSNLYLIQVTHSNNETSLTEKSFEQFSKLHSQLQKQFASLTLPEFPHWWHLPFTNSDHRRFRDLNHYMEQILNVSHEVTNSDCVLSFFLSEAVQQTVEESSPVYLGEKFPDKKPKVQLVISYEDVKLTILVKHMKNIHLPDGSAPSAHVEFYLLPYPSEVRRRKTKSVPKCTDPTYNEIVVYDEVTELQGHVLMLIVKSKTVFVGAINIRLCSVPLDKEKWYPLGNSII
Type: binding
Text: We assessed the selectivity of members of this scaffold using the KINOMEscan methodology across a near comprehensive panel of 442 kinases [[18,27]].

For `COc1cc(C(=O)N2CCC(N3CCN(C)CC3)CC2)ccc1Nc1ncc2c(n1)N(C)c1ccccc1C(=O)N2C` [15 (LRRK2-IN-1)], which “KINOMEscan: PIK3C2G” value is on record?
The value was 100.

How did the “KINOMEscan: PIK3C2G” value turn out when `COc1cc(C(=O)N2CCC(N3CCN(C)CC3)CC2)ccc1Nc1ncc2c(n1)N(C1CCCC1)c1ccccc1C(=O)N2C` [Compound 25, 11-cyclopentyl-2-((2-methoxy-4-(4-(4-methylpiperazin-1-yl)piperidine-1-carbonyl)phenyl)amino)-5-methyl-5H-benzo[e]pyrimido[5,4-b][1,4]diazepin-6(11H)-one] was run?
The value was 100.

`CCOc1cc(C(=O)N2CCC(N3CCN(C)CC3)CC2)ccc1Nc1ncc2c(n1)N(C1CCCC1)c1ccccc1C(=O)N2C` [Compound 26] was tested. Which “KINOMEscan: PIK3C2G” value did it give?
The value was 99.
